Measured values taken from PMC2652713, “Molecular Blocking of CD23 Supports Its Role in the Pathogenesis of Arthritis” (PLoS ONE, 2009).

Assays:
human CD23 = assay: Flow cytometry, inhibition of anti-CD23-FITC McAb binding to human macrophages; settings: human PBL-derived CD23+ macrophages, p30A 10 µg/ml pre-incubation, anti-CD23-FITC 20 µg/ml
Procedure: (§1) Figure 1 Specific blockade of CD23 reactivity by p30A. Flow cytometry analysis showing the inhibition of (A) anti-CD23-FITC (20 µg/ml) or (B) IgE (10 µg/ml)/anti-IgE-FITC (1 µg/ml) binding to CD23^+ human PBL-derived macrophages (red lines) or following their pre-incubation with p30A peptides (10 µg/ml) (blue lines). (C) CD23 western blot was performed on total protein extract from à CD23^+ B-cell line. The detection with CD23-McAb followed the pre-incubation of the blot with or without p30A (10 µg/ml). Similar protein quantity (50 µg) was used for each western blot condition.

CD23 = CD23 western blot on CD23+ B-cell line extract; assay type: binding, human; settings: CD23+ B cell line extract (50 µg protein), blot pre-incubated with p30A 10 µg/ml (methods: 10, 20 and 40 µg/ml, 2 h)
Procedure: as §1
Total cellular proteins were isolated from CD23^+, ADAM B-cell line in cell lysis buffer (10 mM Tris pH 8.0, 150 mM NaCl, 5 mM EDTA, 1% Triton X-100, 0.05% SDS, 10 mM Sodium Fluoride, 1 mM Sodium Orthovanadate, 5 µM Molibdic Acid) and a mixture of protease inhibitors (all from Sigma Aldrich, Saint Quentin Fallavier, France). Protein concentration was determined using the Bradford assay (Bio Rad, Hemel Hempstead, UK). Protein samples (50 µg total protein) were subjected to SDS-PAGE using a 12% resolving gel. […] Immunoreactive bands (CD23 and Bcl2) were detected using the FluorChem 8800 (Alpha Innotech, San Leandro, USA) and semi-quantified by densitometry using AlphaEase FC (Alpha Innotech).

[1] = Weight and intestinal bleeding in AIA rats; assay type: in vivo, rat, Female Lewis; settings: 50 days, data not shown
Procedure: Adjuvant arthritis was induced in six week-old animals by subcutaneous injection at the base of the tail of 300 µl containing 1.8 mg of inactivated Mycobacterium butyricum (Difco Laboratories, Detroit, MI) diluted in emulsion of 8 ml Vaseline, 1 ml polysorbate 80, and 1 ml PBS (Phosphate Buffer Saline, Eurobio). Rats were boosted one week later following the same procedure. Observation was conducted for up to 50 days following immunization for clinical signs of arthritis. Rats were divided in different groups of 8 rats. Groups were treated with five injections (every 2 days) of either p30A (10, 50 or 100 mg in a PBS solution), pCtl, hydrocortisone (Sigma Aldrich) or PBS solution. Injections were initiated two days after the appearance of first arthritic symptoms (therapeutic) or on the first day of immunization (preventive). […] The severity of AIA in each paw was quantified daily using an ordinal clinical score measurement from 0 to 4 as follows: no signs of inflammation ( = 0); swelling alone (>2 fold paw diameter) ( = 1) or swelling/immobility ( = 2) of one paw; swelling ( = 3) or swelling/immobility ( = 4) of two paws. Weight evolution of rats was measured daily. […] Quantification of TNF-α and IL-1β in rat cell supernatants was performed using appropriate ELISA kits and according to manufacturer's recommendations (Biosource, Montrouge, France).

rat CD23+ macrophages = assay: IgE-mediated activation of rat CD23+ macrophages; assay type: cell-based
Procedure: Peptides were added one hour prior to cell activation.

**Q.** For FHENWPS [p30A], which “inhibition of FITC-conjugated anti-CD23 McAb binding” value (human CD23) is on record?
**A.** Its value is “inhibits the binding of FITC-conjugated anti-CD23 McAb”.

**Q.** And the “block of detection of CD23 protein by CD23-McAb” value (CD23)?
**A.** The value was “block”.

**Q.** What about the intestinal bleeding [1] of the same substance?
**A.** The intestinal bleeding was “neither intestinal bleeding was observed”.

**Q.** And the weight loss [1]?
**A.** The weight loss was “no weight loss”.

**Q.** And the “IgE-mediated activation of rat CD23+ macrophages” value (rat CD23+ macrophages)?
**A.** Its value is “decreased IgE-mediated activation of both human and rat CD23^+ macrophages”.
